In EPA's ToxRefDB 2:

Columns and labels:
rat [1] = details: Sub-acute repeat dose toxicity, sprague dawley, Oral, Gavage/Intubation, dose end: 7 day, group: systemic
primate [2] = details: Sub-acute repeat dose toxicity, Oral, Gavage/Intubation, dose end: 5 day, group: systemic
rat [3] = details: Sub-acute repeat dose toxicity, sprague dawley, Oral, Gavage/Intubation, dose end: 29 day, group: systemic
primate [4] = details: Sub-acute repeat dose toxicity; Oral; Gavage/Intubation; dose end: 28 day; group: systemic; systemic / clinical chemistry / cholesterol / cholesterol, direct ldl + systemic / hematology / erythrocyte (rbc) count differential / …
rabbit = details: Prenatal developmental toxicity study, himalayan, Oral, Gavage/Intubation, dose end: 28 GD
dog [5] = details: Subchronic oral toxicity in nonrodent, beagle, Feed, dose end: 106 day, group: systemic
rat [6] = details: Multigenerational reproductive toxicity study, sprague dawley, Oral, Feed, dose end: 2 generation
dog [7] = details: Chronic toxicity, beagle, Oral, Feed, dose end: 52 week, group: systemic
rat [8] = details: Prenatal developmental toxicity study, wistar, Oral, Gavage/Intubation, dose end: 19 GD
rat [9] = details: Subchronic oral toxicity in rodents, wistar, Feed, dose end: 90 day, group: systemic
mouse [10] = details: Carcinogenicity, b6c3f1, Oral, Feed, dose end: 24 month, group: systemic
rat [11] = details: Combined chronic toxicity/carcinogenicity; wistar; Oral; Feed; dose end: 2 year; group: systemic; systemic / pathology microscopic / liver / cytoplasmic alteration + systemic / pathology microscopic / liver / hypertrophy + systemic / …
mouse [12] = details: Subchronic oral toxicity in rodents, b6c3f1, Feed, dose end: 90 day, group: systemic
[13] = systemic / clinical chemistry / aspartate aminotransferase (ast/sgot) / aspartate aminotransferase (ast/sgot) + systemic / clinical …
[14] = systemic / clinical chemistry / gamma glutamyl transferase (ggt) / gamma glutamyl transferase (ggt) + systemic / pathology microscopic / …
[15] = systemic / hematology / blood clotting / blood clotting - activated partial thromboplastin time + systemic / hematology / fibrinogen / …
[16] = systemic / hematology / blood clotting / blood clotting - activated partial thromboplastin time + systemic / in life observation / food …
[17] = systemic / clinical chemistry / cytochrome p450, nos / cytochrome p450, nos + systemic / in life observation / clinical signs / alopecia + …
[18] = systemic / in life observation / clinical signs / salivation + systemic / organ weight / liver / absolute + systemic / pathology microscopic…
[19] = group: developmental, systemic / in life observation / body weight / fetal weight
[20] = group: developmental, systemic / in life observation / body weight / fetal weight + developmental / developmental malformation / bone / full supernumerary + …
[21] = group: maternal, systemic / in life observation / body weight / body weight gain + systemic / in life observation / clinical signs / defecation + systemic / …
[22] = systemic / clinical chemistry / [other] / [other] + systemic / clinical chemistry / epoxide hydrolase / epoxide hydrolase + systemic / …
[23] = systemic / clinical chemistry / epoxide hydrolase / epoxide hydrolase + systemic / pathology microscopic / prostate / secretory fluid
[24] = group: offspring, systemic / in life observation / body weight / offspring (pup) weight
[25] = group: parental, systemic / organ weight / liver / absolute + systemic / organ weight / liver / relative to body weight + systemic / organ weight / thyroid …
[26] = group: reproductive, reproductive / reproductive performance / dystocia / dystocia
[27] = systemic / organ weight / prostate / nos
[28] = systemic / organ weight / spleen / nos
[29] = group: developmental, developmental / developmental malformation / bone / enlarged fontanel + developmental / developmental malformation / bone / incomplete …
[30] = group: maternal, reproductive / reproductive performance / resorptions / resorptions + systemic / in life observation / body weight / body weight + systemic…
[31] = systemic / clinical chemistry / triiodothyronine (t3) / triiodothyronine (t3), free
[32] = systemic / pathology microscopic / liver / degeneration + systemic / pathology microscopic / liver / fatty change + systemic / pathology …
[33] = systemic / pathology microscopic / lymph node / hemorrhage
[34] = systemic / pathology microscopic / adrenal gland / fatty change + systemic / pathology microscopic / adrenal gland / hypertrophy
[35] = systemic / pathology microscopic / liver / hypertrophy

`CC[C@@H]1C[C@H](N(Cc2cc(C(F)(F)F)cc(C(F)(F)F)c2)C(C)=O)c2cc(C(F)(F)F)ccc2N1C(=O)OC(C)C` gave an LOAEL (rat [1]; [13]) of over 700 mg/kg/day, an NOAEL (rat [1]; [13]) of at least 700 mg/kg/day and an LEL (rat [1]; [14]) of 10 mg/kg/day. The NEL (rat [1]; [14]) was under 10 mg/kg/day, the LOAEL (primate [2]; [15]) was over 140 mg/kg/day and the NOAEL (primate [2]; [15]) was at least 140 mg/kg/day. The LEL (primate [2]; [16]) was 10 mg/kg/day, the NEL (primate [2]; [16]) was under 10 mg/kg/day and the LOAEL (rat [3]; [17]) was over 125 mg/kg/day. The NOAEL (rat [3]; [17]) was at least 125 mg/kg/day, the LEL (rat [3]; [18]) was 2 mg/kg/day and the NEL (rat [3]; [18]) was under 2 mg/kg/day. The LEL (primate [4]) was 10 mg/kg/day, the LOAEL (primate [4]) was over 140 mg/kg/day and the NEL (primate [4]) was under 10 mg/kg/day. For the same compound, the NOAEL (primate [4]) was at least 140 mg/kg/day.

Work on `N#CN=C1SCCN1Cc1ccc(Cl)nc1` [Thiacloprid] yielded an LEL (rabbit; [19]) of 10 mg/kg/day, an LOAEL (rabbit; [19]) of 10 mg/kg/day and an NEL (rabbit; [20]) of 2 mg/kg/day. For the same compound, the NOAEL (rabbit; [20]) was 2 mg/kg/day, the LEL (rabbit; [21]) was 10 mg/kg/day and the LOAEL (rabbit; [21]) was 10 mg/kg/day. The NEL (rabbit; [21]) was 2 mg/kg/day, the NOAEL (rabbit; [21]) was 2 mg/kg/day and the LOAEL (dog [5]; [22]) was 34.7 mg/kg/day. The NOAEL (dog [5]; [22]) was 8.9 mg/kg/day, the LEL (dog [5]; [23]) was 8.5 mg/kg/day and the NEL (dog [5]; [23]) was under 8.5 mg/kg/day. It also gave an LEL (rat [6]; [24]) of 21 mg/kg/day, an LOAEL (rat [6]; [24]) of 21 mg/kg/day and an NEL (rat [6]; [24]) of 3.5 mg/kg/day. It also gave an NOAEL (rat [6]; [24]) of 3.5 mg/kg/day, an LOAEL (rat [6]; [25]) of 21 mg/kg/day and an NEL (rat [6]; [25]) of 3.5 mg/kg/day. It also gave an NOAEL (rat [6]; [25]) of 3.5 mg/kg/day, an LEL (rat [6]; group: parental, systemic / organ weight / liver / absolute + systemic / organ weight / liver / relative to body weight + systemic / pathology microscopic / …) of 21 mg/kg/day and an LEL (rat [6]; [26]) of 26 mg/kg/day. For the same compound, the LOAEL (rat [6]; [26]) was 26 mg/kg/day, the NEL (rat [6]; [26]) was 4.2 mg/kg/day and the NOAEL (rat [6]; [26]) was 4.2 mg/kg/day. The LOAEL (dog [7]; [27]) was over 32.2 mg/kg/day, the NOAEL (dog [7]; [27]) was at least 32.2 mg/kg/day and the LEL (dog [7]; [28]) was 1.39 mg/kg/day. The NEL (dog [7]; [28]) was under 1.39 mg/kg/day, the LEL (rat [8]; [29]) was 50 mg/kg/day and the LOAEL (rat [8]; [29]) was 50 mg/kg/day. For the same compound, the NEL (rat [8]; [29]) was 10 mg/kg/day, the NOAEL (rat [8]; [29]) was 10 mg/kg/day and the LEL (rat [8]; [30]) was 50 mg/kg/day. It also gave an LOAEL (rat [8]; [30]) of 50 mg/kg/day, an NEL (rat [8]; [30]) of 10 mg/kg/day and an NOAEL (rat [8]; [30]) of 10 mg/kg/day. The LEL (rat [9]; [31]) was 1.9 mg/kg/day, the NEL (rat [9]; [31]) was under 1.9 mg/kg/day and the LOAEL (rat [9]; systemic / in life observation / body weight / body weight) was 28.6 mg/kg/day. It also gave an NOAEL (rat [9]; systemic / in life observation / body weight / body weight + systemic / clinical chemistry / cholesterol / cholesterol + systemic / clinical…) of 7.3 mg/kg/day, an LOAEL (mouse [10]; [32]) of 234 mg/kg/day and an NOAEL (mouse [10]; [32]) of 5.7 mg/kg/day. For the same compound, the LEL (mouse [10]; [33]) was 5.7 mg/kg/day, the NEL (mouse [10]; [33]) was under 5.7 mg/kg/day and the LEL (rat [11]) was 2.5 mg/kg/day. For the same compound, the LOAEL (rat [11]) was 2.5 mg/kg/day, the NEL (rat [11]) was 1.2 mg/kg/day and the NOAEL (rat [11]) was 1.2 mg/kg/day. The LOAEL (mouse [12]; [34]) was 27.2 mg/kg/day, the NOAEL (mouse [12]; [34]) was under 27.2 mg/kg/day and the LEL (mouse [12]; [35]) was 19.9 mg/kg/day. For the same compound, the NEL (mouse [12]; [35]) was under 19.9 mg/kg/day.
